# Assay results reported in patent US20130252959A1, “NITRIC OXIDE DONORS IN THERAPY OF NITRIC OXIDE DEFICIENCY-INDUCED DISTURBANCES OF CEREBRAL MICROCIRCULATION” (West-Falische Wilhelms-Universitat Munster, priority 2010, published 2013).
# Entries after “also recorded” stand apart in the source; their conditions may differ.
# Key:
# SAH group = settings: administered 48 hours after SAH was induced; cited from earlier work
# [1] = tested on: rat cerebral arterioles and venules; settings: He-Ne laser; cited from earlier work
# [2] = tested on: spontaneously hypertensive rats (SHRs); settings: cited from earlier work
# [3] = in vivo; cited from earlier work
# CVS = settings: cited from earlier work
# [4] = tested on: patients after brain hemorrhage, in particular SAH; settings: under Nimodipine therapy; cited from earlier work
# [5] = tested on: patients with SAH after aneurysmal rupture; assay: Clinical outcome by modified NIH-SS and modified Rankin Scale at least three months after discharge; format: in vivo, human
# From the text: The National Institutes of Health stroke scale (NIH-SS) is a graded neurological examination that assesses speech, language cognition, inattention, visual field abnormalities, motor and sensory impairments, and ataxia. The scale was developed for use in acute-stroke therapy trials and has since been widely used as a standard part of the assessment in clinical trials. This scale, along with many others, has been evaluated in its clinical usefulness in the assessment of the stroke patient. The NIH-SS permits a high-resolution evaluation of a patient's neurological status. To obtain the finding on the NIH-SS, various neurological aspects are investigated and assigned point scores. The total point score is a measure of the severity of the symptoms of stroke, the point score increasing with the severity of the symptoms. This rating scale is also suitable for monitoring the course of the symptoms after stroke and for quantifying the success of any treatment used. In general, it is possible to establish a correlation between the size of the infarct and the severity of the stroke as quantified by the stroke scale.
# Rating scales such as the NIH-SS or the modified Rankin scale are generally used for the quantitative evaluation of the severity of a cerebral disorder, whether acute or under treatment.
# CCT at the beginning and after treatment were analyzed independently by two experienced neuroradiologists and were scanned for development of delayed brain infarction. At least three months after discharge a modified NIH-SS and a modified Rankin Scale (mRS) for clinical follow up was assessed.
# 83 patients admitted to the Intensive Care Unit of the University Hospital of Munster, Germany, after spontaneous aneurysmal SAH were registered in an observational study. Seven patients died in the first 124 hours after admission, without detected CVS probably related to malignant brain edema and severity of initial SAH. These patients were excluded from further evaluation.
# Out of 76 individuals 27 patients received Molsidomine i.v. in an individually up-titrated dosage with a target quantity of 3.5-10 mg/h dependent on systemic circulation reactions. The remaining 49 patients received standard therapy.
# After a minimum of three months the modified NIH and modified Rankin status were determined in order to control clinical outcome of patients (NIH-SS and mRS).
# [6] = tested on: patients with SAH after aneurysmal rupture; assay: Spasm (CVS) related brain infarcts on CCT in SAH patients, Molsidomine in addition to standard therapy vs standard Nimodipine therapy; format: in vivo, human
# Protocol: CCT at the beginning and after treatment were analyzed independently by two experienced neuroradiologists and were scanned for development of delayed brain infarction. At least three months after discharge a modified NIH-SS and a modified Rankin Scale (mRS) for clinical follow up was assessed. 83 patients admitted to the Intensive Care Unit of the University Hospital of Munster, Germany, after spontaneous aneurysmal SAH were registered in an observational study. […] These patients were excluded from further evaluation. […] Out of 76 individuals 27 patients received Molsidomine i.v. in an individually up-titrated dosage with a target quantity of 3.5-10 mg/h dependent on systemic circulation reactions. […] Within 24 h after admission to the ICU patients were treated with coil embolization and/or clipping. […] Appearance of CVS. Male and female patients with an age of 18 years and written informed consent for the additional application of Molsidomine. Spontaneous SAH after aneurysmal rupture and a clinical stage of Hunt and Hess grade Ito V. Exclusion criteria for patients were: No detected CVS. […] CCT and DSA images were independently reported by two experienced neuroradiologists for infarction and vasospasm. CVS related infarcts were diagnosed if hypodense lesions could be detected 72 h or later after therapeutic intervention or operation in comparison to the 24 h control CCT scan and being accompanied by clinical deterioration due to CVS or positive Doppler ultrasound or CVS in DSA.
# [7] = tested on: patients with SAH after aneurysmal rupture; assay: Side effects and monitoring of blood pressure (MAP), ICP and blood under Molsidomine i.v.
# Protocol: In both groups blood pressure, intracranial pressure (ICP) and saturation measurement of blood oxygen were observed continuously. TCD was performed daily or on demand with investigation of the internal carotid artery (ACI), medial cerebral artery (MCA), anterior cerebral artery (ACA) and basilar artery (BA). For monitoring the clinical condition the GCS score (Glasgow Coma Score) was determined per hour
# The drug used contains Molsidomine, as supplied by Sanofi-Aventis, Germany, in ampullae with 2 mg/molsidomine (Corvaton®). The dosage of Molsidomine was adapted to the systemic blood pressure.
# The dosage was reduced if the MAP dropped below 65 mmHg despite infusion therapy (HES 6-10%) or a mild Arterenol® therapy (max dosage Arterenol® 0.1-0.2 μg/h, preferably at a dose of 0.1-0.3 mg/h or a dose of 0.1-0.2 μg/kg/min.). With increased need for Arterenol® the dosage of Molsidomine was reduced accordingly. Patients with cardiac low-output failure induced by preexistent cardiac failure, stop of perfusion during acute SAH itself or other reasons like sepsis received Molsidomine up-titrated in highest possible amount based on cardiac treatment or the treatment was interrupted for maximal 48 hours if Arterenol®-dosage escalated.
# The treatment with Molsidimine was continued (either i.v. or subsequent orally 4×8 mg ret.) until mean flows in TCD were normalized. The duration of Molsodomine application was at least 8 days according to inclusion criteria: Appearance or presence of detectable CVS.
# [8] = after oral administration; cited from earlier work
# [9] = tested on: patients with SAH after aneurysmal rupture; assay: CVS detected by TCD (trans-cranial doppler); format: in vivo, human
# From the text: TCD (trans-cranial doppler) is a diagnostic procedure using ultrasound waves to measure blood flow through the major blood vessels of the brain. In particular, the purpose of this test is to detect any narrowing or blockage in arteries located at the base of the brain that may decrease or stop the flow of blood to the brain and increase blood flow velocities according to narrowed vessel diameter. The test is most useful at detecting decreased blood flow through narrow areas inside blood vessels. TCDs are especially useful for monitoring blood flow in the brain of stroke patients who are affected by brain swelling and vasospasm (which are cerebral blood vessel spasms).
# The treatment with Molsidomine was applied if vasospasm was detected by TCD (mean flow […] resp. Lindegaard-Index >3) or DSA (narrowing of vessel diameter >50%).
# CVS and ischemia = settings: intrathecal, local or intraventricular application; humans or laboratory animal; cited from earlier work
# [10] = infusion 3 min after MCA occlusion
smiles,measurement,setting,value
"N=c1c[n+](N2CCOCC2)[n-]o1 [SIN-1, 3-morpholinosydnonimine]",CBF,SAH group,increased CBF
same,thrombus formation,[1],antithrombotic effect
same,recovery of cerebral blood flow (CBF),[2]; after MCA occlusion,enhanced the recovery of cerebral blood flow (CBF)
same,size of the infarct,[2]; after MCA occlusion,reduced the size of the infarct
same,infarct,[2]; [10],reduced the infarct
same,recovery of CBF and EEG amplitude,[2]; [10],enhanced the recovery of CBF and EEG amplitude
same,plasma protein binding,[3],no relevant plasma protein binding
COc1ccccc1Oc1c(NS(=O)(=O)c2ccc(C)cn2)nc(-c2ccnc(-c3nnn[nH]3)c2)nc1OCCO [Clazosentan],treatment of CVS,CVS; in vivo,highly efficiency for the treatment of CVS
same,long-term outcome or clinical benefit,CVS; multicenter study,failed to show any effect on long-term outcome or clinical benefit
"COCCOC(=O)C1=C(C)NC(C)=C(C(=O)OC(C)C)C1c1cccc([N+](=O)[O-])c1 (centres unmarked) [Nimodipine, 1,4-dihydro-2,6-dimethyl-4-(3-nitrophenyl)-3,5-pyridinedicarboxylic acid 2-methoxyethyl 1-methylethyl ester]",associated DINDs,[4],27-37%
same,spasm-associated infarcts,[4],20-30%
same,spasm-associated infarcts detected by advanced CT-technique,[4],up to 50%
same,spasm-related mortality and high-grade morbidity,[4],30-40%
same,Mean NIH >3 months (without deaths),[5]; Hunt & Hess grade III°,10.6
same,Mean mRS >3 months,[5]; Hunt & Hess grade III°,3.75
same,Mean NIH >3 months (without deaths),[5]; Hunt & Hess grade II°,0
same,Mean mRS >3 months,[5]; Hunt & Hess grade II°,3
same,Mean NIH >3 months (without deaths),[5]; Hunt & Hess grade IV°,12.3
same,Mean mRS >3 months,[5]; Hunt & Hess grade IV°,4.3
same,Mean NIH >3 months (without deaths),[5]; Hunt & Hess grade I°,0.5
same,Mean mRS >3 months,[5]; Hunt & Hess grade I°,1.6
same,Mean NIH >3 months (without deaths),[5]; Hunt & Hess grade V°,38 (2 × exitus)
same,Mean mRS >3 months,[5]; Hunt & Hess grade V°,5.7
same,patients who developed vasospasm associated brain infarctions / patients of the group,[6]; all Hunt & Hess grades,25/49
"CCOC(=O)[N-]c1c[n+](N2CCOCC2)no1 [Molsidomine, N-ethoxycarbonyl-3-morpholinosydnonimine]",adverse / side effects,"[7]; Molsidomine i.v., target 3.5-10 mg/h","No adverse side effects were observed; also recorded: did not show any relevant side effects; also recorded: no serious, untreatable (i.e. severe hypotension) adverse effects were observed"
same,"depression of MAP, maximum",[7]; even with higher dosage,≤ 10 mmHg
same,depression of blood pressure (systolic),[7]; even with higher dosage,10-20 mmHg
same,effect of fast reduction of dosage,[7]; regredient after increased Molsidomine levels,on/off phenomena or a rebound
same,Blood stains,[7]; under Molsidomine,normal
same,ICP,[7]; under Molsidomine,did not increase for short or longer periods
same,MAP kept,[7]; under Molsidomine,65-70 mmHg
same,absorption,[8],completely absorbed
same,Mean NIH >3 months (without deaths),[5]; Hunt & Hess grade III°,3.62
same,Mean mRS >3 months,[5]; Hunt & Hess grade III°,1.75
same,Mean NIH >3 months (without deaths),[5]; Hunt & Hess grade II°,1
same,Mean mRS >3 months,[5]; Hunt & Hess grade II°,1
same,Mean NIH >3 months (without deaths),[5]; Hunt & Hess grade IV°,3.8
same,Mean mRS >3 months,[5]; Hunt & Hess grade IV°,1.6
same,Mean NIH >3 months (without deaths),[5]; Hunt & Hess grade I°,0
same,Mean mRS >3 months,[5]; Hunt & Hess grade I°,1.75
same,Mean NIH >3 months (without deaths),[5]; Hunt & Hess grade V°,17
same,Mean mRS >3 months,[5]; Hunt & Hess grade V°,4
same,clinical condition and long term outcome in the follow up,[5]; SAH-survivors,impressive improvement of clinical condition and long term outcome
same,clinical deterioration,[5]; SAH-survivors,no clinical deterioration
same,patients partly in work process again or to be reintegrated soon,"[5]; follow up, normally approx. 5% return to work",5/27
same,effect in terminating CVS,[9]; judged from equal number of intra-arterial Nimodipine treatments per individual,weak effect
same,TCD-values (flow velocities),[9]; under Molsidomine treatment,trend in Transcranial Doppeler (TCD)-values towards normal velocities
same,"Spasmus related infarcts, Infarction (number of patients)",[6]; Hunt & Hess grade III°,1
same,"Spasmus related infarcts, Infarction (number of patients)",[6]; Hunt & Hess grade II°,0
same,"Spasmus related infarcts, Infarction (number of patients)",[6]; Hunt & Hess grade IV°,1
same,"Spasmus related infarcts, Infarction (number of patients)",[6]; Hunt & Hess grade I°,1
same,"Spasmus related infarcts, Infarction (number of patients)",[6]; Hunt & Hess grade V°,0
same,patients who developed CVS associated infarcts (share of group),[6]; all Hunt & Hess grades,11.1%
same,patients who developed vasospasm associated brain infarctions / patients of the group,[6]; all Hunt & Hess grades,3/27
same,patients who developed CVS associated infarcts (number),"[6]; all Hunt & Hess grades, groups of 49 (Nimodipine) and 27 (Molsidomine)",3
"O=[N+]([O-])OCC(CO[N+](=O)[O-])O[N+](=O)[O-] [GTN, nitroglycerin]",effect on CVS and ischemia,CVS and ischemia,good prophylactic effect on CVS and ischemia
